Measurements taken from PubChem BioAssay (NCI).
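96-well plates; 48 h exposure; 5 concentrations. Endpoints by linear interpolation between flanking doses. Not reached: highest tested concentration assigned. GI50 marks 50% less growth. The concentration for full growth arrest is given as TGI.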

Key:
Assay in all cases: inhibition of tumour cell growth, NCI panel, 48 h
MDA-MB-435 = tested on: MDA-MB-435
MDA-MB-231 breast = tested on: MDA-MB-231 breast
HOP-62 NSCLC = tested on: HOP-62 NSCLC
SN12C renal = tested on: SN12C renal
BT-549 breast = tested on: BT-549 breast
HOP-92 NSCLC = tested on: HOP-92 NSCLC
HT29 colon = tested on: HT29 colon
MALME-3M melanoma = tested on: MALME-3M melanoma
OVCAR-4 ovarian = tested on: OVCAR-4 ovarian
SF-539 CNS = tested on: SF-539 CNS
RPMI-8226 leukemia = tested on: RPMI-8226 leukemia
TK-10 renal = tested on: TK-10 renal
COLO 205 colon = tested on: COLO 205 colon
SK-OV-3 ovarian = tested on: SK-OV-3 ovarian
M14 melanoma = tested on: M14 melanoma
HS 578T breast = tested on: HS 578T breast
NCI/ADR-RES ovarian = tested on: NCI/ADR-RES ovarian
RXF 393 renal = tested on: RXF 393 renal
OVCAR-3 ovarian = tested on: OVCAR-3 ovarian
HCC-2998 colon = tested on: HCC-2998 colon
NCI-H226 lung = tested on: NCI-H226 lung
EKVX NSCLC = tested on: EKVX NSCLC
DU-145 prostate = tested on: DU-145 prostate
IGROV1 ovarian = tested on: IGROV1 ovarian
SK-MEL-28 melanoma = tested on: SK-MEL-28 melanoma
SF-268 CNS = tested on: SF-268 CNS
HCT-116 colon = tested on: HCT-116 colon
SW-620 colon = tested on: SW-620 colon
CCRF-CEM leukemia = tested on: CCRF-CEM leukemia
PC-3 prostate = tested on: PC-3 prostate
OVCAR-8 ovarian = tested on: OVCAR-8 ovarian
NCI-H460 lung = tested on: NCI-H460 lung
MOLT-4 leukemia = tested on: MOLT-4 leukemia
CAKI-1 renal = tested on: CAKI-1 renal
UACC-257 melanoma = tested on: UACC-257 melanoma
K-562 leukemia = tested on: K-562 leukemia
UO-31 renal = tested on: UO-31 renal
KM12 colon = tested on: KM12 colon
A498 renal = tested on: A498 renal
NCI-H522 lung = tested on: NCI-H522 lung
A549 NSCLC = tested on: A549 NSCLC
SK-MEL-5 melanoma = tested on: SK-MEL-5 melanoma
UACC-62 melanoma = tested on: UACC-62 melanoma
SF-295 CNS = tested on: SF-295 CNS
OVCAR-5 ovarian = tested on: OVCAR-5 ovarian
ACHN renal = tested on: ACHN renal
SK-MEL-2 melanoma = tested on: SK-MEL-2 melanoma
MCF7 breast = tested on: MCF7 breast
LOX IMVI melanoma = tested on: LOX IMVI melanoma
U251 CNS = tested on: U251 CNS
786-0 renal = tested on: 786-0 renal
T-47D breast = tested on: T-47D breast
NCI-H23 lung = tested on: NCI-H23 lung
HCT-15 colon = tested on: HCT-15 colon

CC(=O)c1cccc(N(/C=C/C(=O)C(F)(F)F)CC(=O)c2ccc(Cl)cc2)c1 was tested, and the GI50 (MDA-MB-435) was over 100 µM, the TGI (MDA-MB-435) was over 100 µM and the GI50 (MDA-MB-231 breast) was over 100 µM. The TGI (MDA-MB-231 breast) was over 100 µM, the GI50 (HOP-62 NSCLC) was over 100 µM and the TGI (HOP-62 NSCLC) was over 100 µM. The GI50 (SN12C renal) was over 100 µM, the TGI (SN12C renal) was over 100 µM and the GI50 (BT-549 breast) was over 100 µM. The TGI (BT-549 breast) was over 100 µM, the GI50 (HOP-92 NSCLC) was over 100 µM and the TGI (HOP-92 NSCLC) was over 100 µM. It also gave a GI50 (HT29 colon) of over 100 µM, a TGI (HT29 colon) of over 100 µM and a GI50 (MALME-3M melanoma) of over 100 µM. It also gave a TGI (MALME-3M melanoma) of over 100 µM, a GI50 (OVCAR-4 ovarian) of over 100 µM and a TGI (OVCAR-4 ovarian) of over 100 µM. For the same molecule, the GI50 (SF-539 CNS) was over 100 µM, the TGI (SF-539 CNS) was over 100 µM and the GI50 (RPMI-8226 leukemia) was over 100 µM. For the same molecule, the TGI (RPMI-8226 leukemia) was over 100 µM, the GI50 (TK-10 renal) was over 100 µM and the TGI (TK-10 renal) was over 100 µM. For the same molecule, the GI50 (COLO 205 colon) was over 100 µM, the TGI (COLO 205 colon) was over 100 µM and the GI50 (SK-OV-3 ovarian) was over 100 µM. The TGI (SK-OV-3 ovarian) was over 100 µM, the GI50 (M14 melanoma) was over 100 µM and the TGI (M14 melanoma) was over 100 µM. The GI50 (HS 578T breast) was over 100 µM, the TGI (HS 578T breast) was over 100 µM and the GI50 (NCI/ADR-RES ovarian) was over 100 µM. For the same molecule, the TGI (NCI/ADR-RES ovarian) was over 100 µM, the GI50 (RXF 393 renal) was over 100 µM and the TGI (RXF 393 renal) was over 100 µM. The GI50 (OVCAR-3 ovarian) was over 100 µM, the TGI (OVCAR-3 ovarian) was over 100 µM and the GI50 (HCC-2998 colon) was over 100 µM. For the same molecule, the TGI (HCC-2998 colon) was over 100 µM, the GI50 (NCI-H226 lung) was over 100 µM and the TGI (NCI-H226 lung) was over 100 µM. The GI50 (EKVX NSCLC) was over 100 µM, the TGI (EKVX NSCLC) was over 100 µM and the GI50 (DU-145 prostate) was over 100 µM. The TGI (DU-145 prostate) was over 100 µM, the GI50 (IGROV1 ovarian) was over 100 µM and the TGI (IGROV1 ovarian) was over 100 µM. For the same molecule, the GI50 (SK-MEL-28 melanoma) was over 100 µM, the TGI (SK-MEL-28 melanoma) was over 100 µM and the GI50 (SF-268 CNS) was over 100 µM. It also gave a TGI (SF-268 CNS) of over 100 µM, a GI50 (HCT-116 colon) of over 100 µM and a TGI (HCT-116 colon) of over 100 µM. The GI50 (SW-620 colon) was over 100 µM, the TGI (SW-620 colon) was over 100 µM and the GI50 (CCRF-CEM leukemia) was over 100 µM. It also gave a TGI (CCRF-CEM leukemia) of over 100 µM, a GI50 (PC-3 prostate) of over 100 µM and a TGI (PC-3 prostate) of over 100 µM. The GI50 (OVCAR-8 ovarian) was over 100 µM, the TGI (OVCAR-8 ovarian) was over 100 µM and the GI50 (NCI-H460 lung) was over 100 µM. For the same molecule, the TGI (NCI-H460 lung) was over 100 µM, the GI50 (MOLT-4 leukemia) was over 100 µM and the TGI (MOLT-4 leukemia) was over 100 µM. It also gave a GI50 (CAKI-1 renal) of over 100 µM, a TGI (CAKI-1 renal) of over 100 µM and a GI50 (UACC-257 melanoma) of over 100 µM. For the same molecule, the TGI (UACC-257 melanoma) was over 100 µM, the GI50 (K-562 leukemia) was over 100 µM and the TGI (K-562 leukemia) was over 100 µM. For the same molecule, the GI50 (UO-31 renal) was over 100 µM, the TGI (UO-31 renal) was over 100 µM and the GI50 (KM12 colon) was over 100 µM. It also gave a TGI (KM12 colon) of over 100 µM, a GI50 (A498 renal) of over 100 µM and a TGI (A498 renal) of over 100 µM. For the same molecule, the GI50 (NCI-H522 lung) was over 100 µM, the TGI (NCI-H522 lung) was over 100 µM and the GI50 (A549 NSCLC) was over 100 µM. It also gave a TGI (A549 NSCLC) of over 100 µM, a GI50 (SK-MEL-5 melanoma) of over 100 µM and a TGI (SK-MEL-5 melanoma) of over 100 µM. The GI50 (UACC-62 melanoma) was over 100 µM, the TGI (UACC-62 melanoma) was over 100 µM and the GI50 (SF-295 CNS) was over 100 µM. For the same molecule, the TGI (SF-295 CNS) was over 100 µM, the GI50 (OVCAR-5 ovarian) was over 100 µM and the TGI (OVCAR-5 ovarian) was over 100 µM. It also gave a GI50 (ACHN renal) of over 100 µM, a TGI (ACHN renal) of over 100 µM and a GI50 (SK-MEL-2 melanoma) of over 100 µM. For the same molecule, the TGI (SK-MEL-2 melanoma) was over 100 µM, the GI50 (MCF7 breast) was over 100 µM and the TGI (MCF7 breast) was over 100 µM. The GI50 (LOX IMVI melanoma) was over 100 µM, the TGI (LOX IMVI melanoma) was over 100 µM and the GI50 (U251 CNS) was over 100 µM. The TGI (U251 CNS) was over 100 µM, the GI50 (786-0 renal) was over 100 µM and the TGI (786-0 renal) was over 100 µM. For the same molecule, the GI50 (T-47D breast) was over 100 µM, the TGI (T-47D breast) was over 100 µM and the GI50 (NCI-H23 lung) was over 100 µM. It also gave a TGI (NCI-H23 lung) of over 100 µM, a GI50 (HCT-15 colon) of over 100 µM and a TGI (HCT-15 colon) of over 100 µM.
